{"source": "patent US20230190725A1", "about": "“MEK INHIBITORS FOR CORNEAL SCARRING AND NEOVASCULARIZATION” (THE BOARD OF TRUSTEES OF THE UNIVERSITY OF ILLINOIS, priority 2019, published 2023)", "key": {"[1]": {"test_system": "PAX6", "experiment": "PAX6 mRNA (RT-PCR) and protein (SDS-PAGE vs GAPDH) expression in human corneal epithelial cells", "format": "cell-based", "conditions": "for PAX6 protein expression: human cornea epithelium cells, 48 hours of treatment", "method": "For example, PD0325901 (PD) was tested in human corneal epithelial cells (HCEC).\nHCEC were treated with a PD composition comprising 1 μM PD dissolved in culture media for up to 120 hours. PAX6 protein levels were detected by SDS-PAGE and quantified by comparing the levels of GAPDH protein (FIG. 1A). In the same treated corneal epithelial cells, PAX6 mRNA expression was measured by RT-PCR using three different primers. (FIG. 1B).\nIn summary, the MEK inhibition increased PAX6 mRNA and protein expressions in human corneal epithelial cells (2.7±0.2 & 3.0±0.3 folds)."}, "[2]": {"test_system": "ERK1 and ERK2", "experiment": "Western blot of ERK1/ERK2 in human corneal epithelial cells", "format": "cell-based", "text": "Western blot analysis of human corneal epithelial cells confirmed that this MEK inhibitor effectively and specifically suppresses ERK1 and ERK2, while having minimal effect on p38 as the control (FIG. 10)."}, "[3]": {"test_system": "epithelial and limbal stem cell injury model", "experiment": "Corneal injury model with limbal stem cell deficiency", "format": "in vivo, mouse", "conditions": "up to 1 month after injury", "method": "The formulation was tested in an epithelial and limbal stem cell injury model, in which we injured the epithelium of the cornea up to the limbal area, creating a severe scar forming wound with limbal stem cell deficiency.\nThe PD composition provided in Example 1 was tested in an injury model, in which we injured the epithelium of the cornea up to the limbal area, creating a severe scar forming wound with limbal stem cell deficiency. Using an alger brush, the corneal epithelium was scraped under general anesthesia from limbus to limbus to create a limbal stem cell deficiency model. Following this injury, corneal limbal stem cell deficiency happens, similar to human disease, and the cornea becomes scarred, opacified and vascularized by time."}, "[4]": {"test_system": "Aniridia mouse model", "experiment": "P90 electroretinography (ERG) in Aniridia mouse model", "format": "in vivo", "method": "Retina function was assessed in the Aniridia mouse model using P90 electroretinography (ERG). Aniridia mice were treated with the PD composition described in Example 1 or vehicle."}, "[5]": {"test_system": "PAX6", "experiment": "PAX6 mRNA measurement in murine PAX6 heterozygote corneal MSCs", "format": "cell-based", "conditions": "n=3", "text": "Significance determined by t test. *P<0.05. Ctrl: control. RX: treatment."}, "[6]": {"test_system": "mouse model of Aniridia", "format": "in vivo", "conditions": "for Corneal stromal thickness: P30, OCT, central cornea, WT 50.5±1.1 μm; for PAX6 protein expression in corneas: P30 PAX6 staining, compared to control; for corneal whole mount CK12 staining intensity: P90, Normal CK12 intensity: 100%; for Corneal scarring (ratio of scar area to total corneal area): slit lamp images", "method": "Aniridia is a human condition with PAX6 mutation that develops corneal scarring and neovascularization. The MEK pathway is known to inhibit the PAX6 pathway, therefore it was investigated whether MEK inhibitors can indirectly stimulate PAX6 production. MEK inhibitors were tested in vivo, in a mouse model of Aniridia which allowed for investigation corneal opacification, scarring and neovascularization. Oral and topical formulations were optimized using an exemplary MEK inhibitor, such as PD0325901 (PD).\nAniridia mice were treated with or topical PD composition or vehicle, from postnatal day P5 to P30. Wild type (WT) littermates were used as normal reference. OCT and slit lamp images were used to compare the corneal epithelial/stromal thickness, clarity and scarring. H&E and immunostaining with PAX6 and Cytokeratin (CK)12 were used to compare the morphology, protein expression and differentiation. P30 PAX6 staining confirmed increase in PAX6 protein expression in corneas with both oral (2.3±0.2 folds) and topical (2.5±0.1 folds) methods (P<0.001) (oral data not shown, topical data FIG. 3A).\nFIG. 2 provides the data from the topical administration of PD compositions. […] The area of scarring was measured manually based on the corneal opacification in the scar area on the slit lamp images using ImageJ (NIH). The ratio of the scar area to total corneal area was reported as a percentage. […] These measurements show the promotion of a more normal differentiation of the corneal epithelium and stroma (FIG. 2). Corneal epithelial and stromal thicknesses were measured at the central cornea and outside the scar area via OCT imaging.\nHematoxylin and eosin (H&E) staining was carried out on Aniridia cornea tissue. […] FIG. 2 provides representative H&E staining of frozen sections from day 30).\nImmunohistochemical staining of the mice eyes for DAPI, PAX6 and CK12 (a marker for normal corneal epithelium) was also carried out."}, "[7]": {"conditions": "human corneal epithelial cells, n=3, FIG. 1"}}, "note": "Where two headings read alike, the source gives them in different places."}
{"smiles": "O=C(c1ccc(F)c(F)c1Nc1ccc(I)cc1F)N1CC(O)([C@@H]2CCCCN2)C1", "note": "[Cobimetinib]", "values": [{"measurement": "PAX6 protein expression", "setting": "[1]", "result": "induced PAX6 protein expression"}, {"measurement": "PAX6 protein measurement", "setting": "[1]; [7]", "result": "can induce PAX6 expression"}]}
{"smiles": "O=C(NOC[C@H](O)CO)c1ccc(F)c(F)c1Nc1ccc(I)cc1F", "note": "[PD0325901, Mirdametinib]", "values": [{"measurement": "ERK1/ERK2 inhibition", "setting": "[2]", "result": "specific ERK1/ERK2 inhibition"}, {"measurement": "corneal neovascularization", "setting": "[3]", "result": "significantly less"}, {"measurement": "corneal opacity / haziness", "setting": "[3]", "result": "significantly less"}, {"measurement": "corneal neovascularization", "setting": "[3]; listed as PD", "result": "significantly reduced"}, {"measurement": "corneal opacity / haziness", "setting": "[3]; listed as PD", "result": "significantly reduced"}, {"measurement": "ocular/retinal function", "setting": "[4]; P90 electroretinography, compared to the control group", "result": "significantly better ocular/retinal function"}, {"measurement": "Photopic β wave", "setting": "[4]; topical, P90 ERG", "result": "102.1 ± 50.9"}, {"measurement": "Scotopic α wave", "setting": "[4]; topical, P90 ERG", "result": "−214.5 ± 64.1"}, {"measurement": "Scotopic β wave", "setting": "[4]; topical, P90 ERG", "result": "244.8 ± 120.1"}, {"measurement": "PAX6 mRNA measurement", "setting": "[1]; [7]", "result": "increase in PAX6 expression"}, {"measurement": "PAX6 protein measurement", "setting": "[1]; [7]", "result": "increase in PAX6 expression"}, {"measurement": "PAX6 mRNA measurement", "setting": "[5]", "result": "increase in PAX6 expression"}, {"measurement": "H&E histological pattern of cornea", "setting": "[6]; frozen sections, day 30", "result": "more similar histological pattern to normal"}, {"measurement": "toxicity of optimized formulation and dosage", "setting": "[6]; mouse, in vivo, po", "result": "no toxicity"}, {"measurement": "Corneal stromal thickness", "setting": "[6]; oral", "result": "24.7±4.1", "unit": "μm"}, {"measurement": "PAX6 protein expression in corneas", "setting": "[6]; oral", "result": "2.3±0.2", "unit": "folds"}, {"measurement": "corneal whole mount CK12 staining intensity", "setting": "[6]; oral", "result": "64±3", "unit": "%"}, {"measurement": "Corneal scarring (ratio of scar area to total corneal area)", "setting": "[6]; oral", "result": "2.1±0.4", "unit": "%"}, {"measurement": "Corneal stromal thickness", "setting": "[6]; topical", "result": "25.5±4.7", "unit": "μm"}, {"measurement": "PAX6 protein expression in corneas", "setting": "[6]; topical", "result": "2.5±0.1", "unit": "folds"}, {"measurement": "corneal whole mount CK12 staining intensity", "setting": "[6]; topical", "result": "69±32", "unit": "%"}, {"measurement": "Corneal scarring (ratio of scar area to total corneal area)", "setting": "[6]; topical", "result": "2.3±0.6", "unit": "%"}]}
{"smiles": "COc1cc(F)c(F)c(Nc2ccc(I)cc2F)c1NS(=O)(=O)C1(C[C@H](O)CO)CC1", "note": "[Refametinib, refametinib]", "values": [{"measurement": "PAX6 protein expression", "setting": "[1]", "result": "induced PAX6 protein expression"}, {"measurement": "PAX6 protein measurement", "setting": "[1]; [7]", "result": "can induce PAX6 expression"}]}
